# Where a name gives a salt, the structure may show the parent alone.
# Biological target: T1, elastase from human neutrophil (Homo sapiens, UniProt P08246)
# T1 construct: elastase from human neutrophil; from tissue; host or cells: human neutrophil
# T1 sequence (P08246 30-247 limits assumed): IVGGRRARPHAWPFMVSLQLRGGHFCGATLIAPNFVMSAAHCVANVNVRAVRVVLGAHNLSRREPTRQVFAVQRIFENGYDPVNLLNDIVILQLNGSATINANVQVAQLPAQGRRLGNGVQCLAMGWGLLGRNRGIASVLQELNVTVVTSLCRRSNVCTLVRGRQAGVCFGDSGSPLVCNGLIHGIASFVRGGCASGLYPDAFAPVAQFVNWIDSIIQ
# Assay: Inhibitory effect on elastase (spectrophotometric, Suc-Ala-Pro-Ala-pNA substrate)
# Assay type: biochemical
# Details: 1 mM Suc-Ala-Pro-Ala-pNA, tris-hydrochloric acid pH 8.0, 37° C. for 30 minutes, absorbance 405 nm
# Procedure: The reaction mixture consisted of 1 mM Suc-Ala-Pro-Ala-pNA (dissolving in N-methylpyrrolidone to the concentration of 100 mM, and then adding 1/100 amount of the solution to the reaction mixture.), 0.1 M buffer solution of tris-hydrochloric acid (pH 8.0), 0.2 M sodium chloride aqueous solution, the sample solution of various concentrations and enzyme solution in a final volume of 1.0 ml was incubated at 37° C. for 30 minutes.
# Inhibition percentage of the test compounds was calculated by the following equation: [formula]
row,Structure (SMILES),IC50
1,"CSCCC(NC(=O)c1ccccc1NS(=O)(=O)c1ccc(OC(=O)C(C)(C)C)c(C)c1)C(=O)O (racemic) [2(68), N-[o-(3-methyl-4-pivaloyloxybenzene)sulfonylaminobenzoyl]-dl-methionine]",200 nM
2,"CC(C)(C)C(=O)Oc1ccc(S(N)(=O)=O)cc1 [1(2), p-sulfamoylphenyl ester of pivalic acid]",770 nM
3,"CC(C)(C)C(=O)Oc1ccc(S(=O)(=O)NC2CCCCC2)cc1 [1(3), p-(N-cyclohexylsulfamoyl)phenyl ester of pivalic acid]",42 nM
4,"CC(C)(C)C(=O)Oc1ccc(S(=O)(=O)Nc2ccc(Cl)cc2)cc1 [1(8), p-[N-(4-chlorophenyl)sulfamoyl] phenyl ester of pivalic acid]",30 nM
5,"CC(C)(C)C(=O)Oc1ccc(S(=O)(=O)n2ccnc2)cc1 [1(12), p-[(1-imidazolyl)sulfonyl]phenyl ester of pivalic acid]",50 nM
6,"CC(C)(C)C(=O)Oc1ccc(S(=O)(=O)Nc2ccccn2)cc1 [1(14), p-[N-(α-pyridyl)sulfamoyl]phen-yl ester of pivalic acid]",190 nM
7,CC(=O)Oc1ccc(N(S(=O)(=O)c2ccc(OC(=O)C(C)(C)C)cc2)S(=O)(=O)c2ccc(OC(=O)C(C)(C)C)cc2)cc1 [1(15)],48 nM
8,"CC(C)(C)NS(=O)(=O)c1ccc(OC(=O)C(C)(C)C)cc1 [2(5), p-(N-tert-butylsulfamoyl)phenyl ester of pivalic acid]",53 nM
9,"CCN(CC)C(=O)COC(=O)c1ccccc1NS(=O)(=O)c1ccc(OC(=O)C(C)(C)C)c(C)c1 [2(38), 2-methyl-4-[N-(o-(N,N-diethyl-carbamoylmethoxycarbonyl)phehyl)sulfamoyl]phenyl ester of pivalic acid]",72 nM
10,"Cc1cc(S(=O)(=O)Nc2cccc3c2OC(C(=O)O)CO3)ccc1OC(=O)C(C)(C)C (stereo not shown) [2(49), 2-methyl-4-[N-(1,4-dioxa-2-carboxy-8-yl-naphthalene)sulfamoyl]phenyl ester of pivalic]",150 nM
11,"Cc1cc(S(=O)(=O)Nc2ccccc2OCCCC(=O)O)ccc1OC(=O)C(C)(C)C [2(51), 2-methyl-4-[N-(o-carboxypropoxy-phenyl)sulfamoyl]phenyl ester of pivalic acid]",640 nM
12,"Cc1cc(S(=O)(=O)Nc2ccccc2C(=O)N2CCC[C@H]2C(=O)O)ccc1OC(=O)C(C)(C)C [2(62), 2-methyl-4-[N-(2-prolylcarbonylphenyl)sulfamoyl] phenyl ester of pivalic acid]",690 nM
13,"Cc1cc(S(=O)(=O)Nc2ccccc2C(=O)N[C@@H](Cc2ccccc2)C(=O)O)ccc1OC(=O)C(C)(C)C [2(67), N-[o-(3-methyl-4-pivaloyloxybenzene)sulfonylaminobenzoyl]-L-phenylalanine]",410 nM
14,"Cc1cc(S(=O)(=O)Nc2ccccc2C(=O)N[C@@H](CCCCN)C(=O)O)ccc1OC(=O)C(C)(C)C [2(69), N-[o-(3-methyl-4-pivaloyloxybenzene)sulfonylaminobenzoyl]-L-lysine. hydrochloride]",520 nM
15,"CSc1ccc(NS(=O)(=O)c2ccc(OC(=O)C(C)(C)C)cc2)c(C(=O)NCC(=O)O)c1 [2(80), N-[5-methylthio-2-(p-pivaloyoxy-benzene)sulfonylaminobenzoyl] glycine]",21 nM
16,"CCCSc1ccc(NS(=O)(=O)c2ccc(OC(=O)C(C)(C)C)cc2)c(C(=O)NCC(=O)O)c1 [2(87), N-[2-(p-pivaloyloxybenzene)sulfonylamino-5-propylthiobenzoyl] glycine]",24 nM
17,"CC(C)(C)C(=O)Oc1ccc(S(=O)(=O)NCCc2ccccc2)cc1 [4(5), p-(N-phenethylsulfamoyl)phenyl ester of pivalic acid]",72 nM
18,"CC(C)(C)C(=O)Oc1ccc(S(=O)(=O)Nc2ccccc2C(=O)O)cc1 [5(3), p-[N-(o-carboxyphenyl)sulfamoyl] phenyl ester of pivalic acid]",23 nM
19,"CN(c1ccc(Br)cc1)S(=O)(=O)c1ccc(OC(=O)C(C)(C)C)cc1 [Example 1, p-[N-(p-bromophenyl)-N-methylsulfamoyl] phenyl ester of pivalic]",31 nM

# Reference: patent publication US5403850A, “Derivatives of P-substituted phenyl ester of pivalic acid” (Ono Pharmaceutical Co., Ltd., priority 1988, dated 1995)
